Measurements from patent publication US8877463B2, “Rhodanobacter ginsenosidimutans KCTC22231T-derived ginsenoside glycosidase, and use thereof” (Korea Research Institute of Bioscience and Biotechnology, priority 2009, dated 2014).

Columns and labels:
[1] = system: ginsenoside glycosidase Bgl3054; test: Reaction of expressed ginsenoside glycosidase with Rb1 solution, TLC analysis; type: biochemical, Rhodanobacter ginsenosidimutans KCTC22231T; conditions: 1 mg/ml Rb1 solution in 50 mM sodium phosphate
Experimental: E.coil C41 (DE3) containing overexpressed plasmid was cultured in LB-ampicillin media at 37° C. when the OD value at 600 nm reached 0.6, and treated with 0.5 mM isopropyl-β-D-thiogalactopyranoside for 12 hours to induce protein expression. The bacterial cells were obtained by centrifugation at 4° C. and 5,000×g for 20 minutes. The cell pellet was resuspended in a solution (suspension) consisting of 50 mM sodium phosphate, 5 mM EDTA, and 1% Triton X-100 (pH 7.0) and subjected to ultrasonification. Ginsenoside glycosidase was completely hydrated without formation of insoluble precipitate, and ginsenoside glycosidase was reacted with 1 mg/ml Rb1 solution in 50 mM sodium phosphate, and TLC analysis was performed.

[2] = system: Bgl3054 ginsenoside glycosidase; test: Specificity and selectivity of the enzyme for hydrolysis of ginsenosides (TLC, HPLC, NMR); type: biochemical, Rhodanobacter ginsenosidimutans KCTC22231T; conditions: 0.2U enzyme, 50 mM sodium phosphate buffer pH 7.0, 0.1% (w/v) substrate, 37° C.
Experimental: In order to analyze the specificity and selectivity of the enzyme for the hydrolysis of glucose at the C-3 and C-20 positions of ginsenoside, ginsenoside Rb1, Rb2, Rc, Rd, and Rg3 were used as the substrates. Each reaction mixture containing 0.2U enzyme, 50 mM sodium phosphate buffer 0.1% (w/v) (pH 7.0), and the substrate was incubated at 37° C. Each sample was withdrawn at regular intervals, and an equal volume of water-saturated butanol was added to stop the reaction. The n-butanol fraction was evaporated to dryness, and residual material was dissolved in CH3OH and then examined by TLC HPLC or NMR analysis, and the results are shown in FIGS. 10, 11 and 12.

[3] = system: Bgl3054; test: Substrate preference with chromogenic ONP and PNP substrates; type: biochemical, Rhodanobacter ginsenosidimutans KCTC22231T; conditions: 2.0 mM substrate, 37° C., 5 minutes; for activity of Bgl3054 for the substrate, rank order after ONP-β-D-fucopyranoside: descending order as listed: PNP-fucopyranoside, oNP-glucopyranoside, ONP-galactopyranoside, PNP-glucopyranoside, PNP-arabinopyranoside, PNP-galactopyranoside
Experimental: A free PNP-type substrate has a yellow color, but turns colorless when it binds with various sugars. The characteristics of glucosidase-type enzymes were analyzed using this principle. For example, PNPGlc is a colorless compound prepared by beta linkage of PNP and glucose, but free PNP catalyzed by beta-glucosidase has a yellow color. Thus, when a color change occurs by use of PNPGlc as a substrate, the enzyme is determined as a beta-glucosidase. In addition, when PNP-β-D-galactopyranoside is metabolized by an enzyme to produce yellow color, it is determined as β-D-galactopyranosidase. The color becomes darker according to characteristics and concentrations of the substrate, and thus it is possible to measure the concentration of the enzyme using a spectrometer.
1 activity unit was defined as the release of o-nitrophenol or p-nitrophenol per minute. For analysis of substrate preference, 2.0 mM chromogenic ONP and PNP (p-nitrophenyl) were used as the substrates, and incubated in 50 mM sodium phosphate buffer at 37° C. for 5 minutes.
The analyzed substrates (Sigma) were PNP-β-D-glucopyranoside, PNP-β-D-galactopyranoside, PNP-β-D-fucopyranoside, PNP-N-acetyl-β-D-glucosaminide, PNP-β-L-arabinopyranoside, PNP-β-D-mannopyronoside, PNP-β-D-xylopyranoside, PNP-β-D-glucopyranoside, PNP-β-L-arabinofuranoside, PNP-β-L-arabinopyranoside, PNP-β-D-rhamnopyranoside, PNP-β-D-mannopyranoside, and PNP-β-D-xylopyranoside, and o-nitrophenol[ONP]-β-D-glucopyranoside, ONP-β-D-galactopyranoside, ONP-β-D-fucopyranoside, and ONP-β-D-galactopyranoside.

[4] = target: ginsenoside glycosidase (Bgl3054) (Microbacterium sp. Gsoil167, UniProt L0ELG0); test: Metal and chemical agent effects on enzymatic activity; type: biochemical, Rhodanobacter ginsenosidimutans KCTC22231T; conditions: at the concentration of 10 mM or more; room temperature 30 minutes; pNPGlc substrate
Experimental: Specific activity was measured using 90 μl of 50 mM sodium phosphate buffer containing 2.0 mM pNPGlc (p-nitrophenyl-β-D-glucopyranoside; Sigma) at pH 7.0, and 10 μl of the diluted purified enzyme was treated at 37° C. for 20 minutes before initiation of the reaction, followed by incubation. 0.1 ml of 1 M Na2CO3 was treated for 5 minutes to terminate the reaction, and the concentration of p-nitrophenol was immediately measured at 405 nm. One unit of activity was defined as the amount of enzyme that released 1 μmol of p-nitrophenol per minute. Specific activity is expressed in units per milligram protein. Protein concentration was measured using a Bio-Rad protein staining reagent according to the protocol. All analyses were performed at least three times.
Ginsenoside glycosidase was incubated at room temperature for 30 minutes in 1 mM and 10 mM (final concentration) of ZnCl2, MnCl2, CaCl2, CoCl2, MgCl2, EDTA, NaCl, KCl, CuCl2, DTT, SDS, and mercaptoethanol, and pNPGlc (p-nitrophenyl-β-D-glucopyranoside; Sigma) was used as a substrate to measure the activity. The resulting value was represented as a percentage to the obtained activity upon lack of the compounds, and is shown in Table 1.

[5] = system: ginsenoside glycosidase (Bgl3054); test: Kinetic studies of pNPGlc hydrolysis (Km, Vmax); type: biochemical, Rhodanobacter ginsenosidimutans KCTC22231T; conditions: pNPGlc 0.1 mM to 0.6 mM, 37° C., 20 minutes, absorbance 405 nm
Experimental: Further, kinetic studies were performed with freshly purified enzyme using pNPGlc (p-nitrophenyl-β-D-glucopyranoside; Sigma) at the concentrations of from 0.1 mM to 0.6 mM. Its absorbance at 405 nm was monitored at 37° C. for 20 minutes. The resulting data were used to determine Km and Vmax using the Enzyme Kinetics Program reported by Cleland.
Km and Vmax for the hydrolysis of pNPGlc (p-nitrophenyl-β-D-glucopyranoside; Sigma) by ginsenoside glycosidase were calculated using the Enzyme Kinetics Program reported by Cleland.

[6] = type: biochemical; conditions: 4-90° C., 2.0 mM pNPGlc, 50 mM potassium phosphate buffer, optimum pH, 5 minutes
Experimental: The effect of temperature on the enzymatic activity was measured. The temperature was adjusted between 4-90° C., and 2.0 mM pNPGlc (p-nitrophenyl-β-D-glucopyranoside; Sigma) was used to analyze the temperature-dependent activity in the 50 mM potassium phosphate buffer at the optimum pH for 5 minutes.
Further, the equivalent amount of enzyme was incubated in 50 mM potassium phosphate buffer within the same temperature range for 30 minutes to analyze the temperature stability. The sample was cooled in ice for 10 minutes, and the residual activity was measured according to a standard analytical procedure, and the results are shown in FIG. 7.

[7] = type: biochemical; conditions: 2.0 mM pNPGlc, 50 mM buffers
Experimental: The effect of pH on the enzymatic activity was measured. 2.0 mM pNPGlc (p-nitrophenyl-β-D-glucopyranoside; Sigma) was used as a substrate, and pH was adjusted using the following buffer (50 mM).
pH range of 2 to 10: KCl-HCl (pH 2), glycine-HCl (pH 3), sodium acetic acid (pH 4 and 5), sodium phosphate (pH 6 and 7), Tris-HCl (pH 8 and 9) and glycine-sodium hydroxide (pH 10) Further, the effect of pH on the enzymatic stability was measured. The enzyme was incubated in each of the above mentioned buffers at 4° C. for 24 hours, and then pHPGlc was analyzed in 50 mM potassium buffer to measure the enzymatic stability according to pH change. Residue activity was analyzed according to a standard analytical procedure, and the results are shown in FIG. 6 as an activity probability obtained at the optimum pH.

CC(C)=CCC[C@](C)(O[C@@H]1O[C@H](CO[C@@H]2O[C@H](CO)[C@@H](O)[C@H](O)[C@H]2O)[C@@H](O)[C@H](O)[C@H]1O)[C@H]1CC[C@]2(C)[C@@H]1[C@H](O)C[C@@H]1[C@@]3(C)CC[C@H](O[C@@H]4O[C@H](CO)[C@@H](O)[C@H](O)[C@H]4O[C@@H]4O[C@H](CO)[C@@H](O)[C@H](O)[C@H]4O)C(C)(C)[C@@H]3CC[C@]12C [Ginsenoside Rb1, ginsenoside Rb1]
conversion of ginsenoside by Bgl3054 (TLC) [1]: into F2 via Rd
bioconversion of the ginsenoside substrate by the enzyme [2]: converted into Rd

CC(C)=CCC[C@](C)(O[C@@H]1O[C@H](CO[C@@H]2O[C@@H](CO)[C@H](O)[C@H]2O)[C@@H](O)[C@H](O)[C@H]1O)[C@H]1CC[C@]2(C)[C@@H]1[C@H](O)C[C@@H]1[C@@]3(C)CC[C@H](O[C@@H]4O[C@H](CO)[C@@H](O)[C@H](O)[C@H]4O[C@@H]4O[C@H](CO)[C@@H](O)[C@H](O)[C@H]4O)C(C)(C)[C@@H]3CC[C@]12C [Ginsenoside Rc, ginsenoside Rc]
bioconversion of the ginsenoside substrate by the enzyme [2]: converted into compound Mc1

C[C@H]1O[C@@H](Oc2ccccc2[N+](=O)[O-])[C@H](O)[C@@H](O)[C@H]1O [ONP-β-D-fucopyranoside]
activity of Bgl3054 for the substrate (substrate preference) ([3]; 50 mM sodium phosphate buffer): highest activity

O=[N+]([O-])c1ccccc1O[C@@H]1O[C@H](CO)[C@H](O)[C@H](O)[C@H]1O [ONP-β-D-galactopyranoside]
activity of Bgl3054 for the substrate, rank order after ONP-β-D-fucopyranoside [3]: higher activity in this order

C[C@H]1O[C@@H](Oc2ccc([N+](=O)[O-])cc2)[C@H](O)[C@@H](O)[C@H]1O [PNP-β-D-fucopyranoside]
activity of Bgl3054 for the substrate, rank order after ONP-β-D-fucopyranoside [3]: higher activity in this order

O=[N+]([O-])c1ccc(O[C@@H]2O[C@H](CO)[C@H](O)[C@H](O)[C@H]2O)cc1 [PNP-β-D-galactopyranoside]
activity of Bgl3054 for the substrate, rank order after ONP-β-D-fucopyranoside [3]: higher activity in this order

O=[N+]([O-])c1ccc(O[C@H]2OC[C@H](O)[C@H](O)[C@H]2O)cc1 [PNP-β-L-arabinopyranoside]
activity of Bgl3054 for the substrate, rank order after ONP-β-D-fucopyranoside [3]: higher activity in this order

CC(C)=CCC[C@](C)(O[C@@H]1O[C@H](CO[C@@H]2OC[C@H](O)[C@H](O)[C@H]2O)[C@@H](O)[C@H](O)[C@H]1O)[C@H]1CC[C@]2(C)[C@@H]1[C@H](O)C[C@@H]1[C@@]3(C)CC[C@H](O[C@@H]4O[C@H](CO)[C@@H](O)[C@H](O)[C@H]4O[C@@H]4O[C@H](CO)[C@@H](O)[C@H](O)[C@H]4O)C(C)(C)[C@@H]3CC[C@]12C [Rb2, ginsenoside Rb2]
bioconversion of the ginsenoside substrate by the enzyme [2]: converted into Rd

CC(C)=CCC[C@](C)(O[C@@H]1O[C@H](CO)[C@@H](O)[C@H](O)[C@H]1O)[C@H]1CC[C@]2(C)[C@@H]1[C@H](O)C[C@@H]1[C@@]3(C)CC[C@H](O[C@@H]4O[C@H](CO)[C@@H](O)[C@H](O)[C@H]4O[C@@H]4O[C@H](CO)[C@@H](O)[C@H](O)[C@H]4O)C(C)(C)[C@@H]3CC[C@]12C [Rd, ginsenoside Rd]
bioconversion of the ginsenoside substrate by the enzyme [2]: converted into F2

CCCCCCCCCCCCOS(=O)(=O)[O-].[Na+] [SDS]
effect on the enzymatic activity [4]: inhibitory effect

O=[N+]([O-])c1ccccc1O[C@@H]1O[C@H](CO)[C@@H](O)[C@H](O)[C@H]1O [oNP-β-D-glucopyranoside, o-nitrophenol[ONP]-β-D-glucopyranoside]
activity of Bgl3054 for the substrate, rank order after ONP-β-D-fucopyranoside [3]: higher activity in this order

O=[N+]([O-])c1ccc(O[C@@H]2O[C@H](CO)[C@@H](O)[C@H](O)[C@H]2O)cc1 [pNPGlc, p-nitrophenyl-β-D-glucopyranoside]
Vmax for the hydrolysis of pNPGlc by ginsenoside glycosidase [5]: 0.3177(±0.01654) mmol*min−1*mg of protein-1
activity of Bgl3054 for the substrate, rank order after ONP-β-D-fucopyranoside [3]: higher activity in this order

B1: Bgl3054: Rhodanobacter ginsenosidimutans KCTC22231T-derived ginsenoside glycosidase protein, 433 amino acids, SEQ ID NO. 2 (protein)
chain: GLGRRRASMMRGTPMTNPFPQDFLWGVATAGHQVEGNNVNSDVWFLEHLPGTIFAEPSGDAVDHYHRYREDIALIAGLGFTSYRFSVEWARIEPEEGHFSVAALDHYKRVLEACREHGLTPVVTFHHFASPLWLLRSGGWEGERTPELFARYCGRVMAHLGDLIGVACTLNEPNLPWLLESFGIGGEAPENRGKVPMWAAAAQRLGVDASTVAPFQFCSTEAGFNVKLAAHKAATEAIKAHRPDLRVGWTLANSDIQSVPGGEEIAAQVRRDVNERFLEASRGDDFVGIQTYGRTVYGPDGHAPAPEGVAVNQMGEEIYPQALEATIREAWRVAGIPVMVTENGLATEDDTQRVAYLRTAVDGVASCLADGIDVRGYIAWTAFDNFEWIFGYGPKFGLIAVDRSTQERTPKESARWLGNFARQQAPAEAPQPA
modifications: Bgl3054
temperature of maximum activity [6]: 40-55 °C
pH of highest activity [7]: 7.0
